Values joined by “and” are separate entries in the source; they are usually repeats but may differ in a detail not shown here. Identical values can stand only once.

This note sets out measurements from article PMC11862990, “Utility of 6-aza-2-thiothymine in the synthesis of novel [1,2,4]triazolo[4,3-b][1,2,4]triazin-7-one derivatives: synthesis, structure elucidation, molecular docking and in vitro anti-lung cancer activity” (RSC Advances, 2025).

Data set [1] concerns BJ1 (normal skin fibroblast). Conditions: 100 μg ml^−1, 48 hours, MTT. As for the experimental part:
Using specific human cancer cell lines, the anti-proliferative effectiveness of compounds 7a–j was evaluated in an in vitro assay. The anti-cancer activity of these compounds (7a–j) on various cancer cell lines, including PC3 (Prostate cell line), A549 (Lung carcinoma), PACA2 (Pancreatic cancer cell line) and BJ1 (normal skin fibroblast), was investigated in this study using the 3-(4,5-dimethylthiazol-2-yl)-2,5-diphenyltetrazolium bromide (MTT) test.
In the initial screening trial, a single dosage concentration of 100 μg ml^−1 was applied for 48 hours. The cytotoxicity of the treated cells was determined by calculating the cell death percentage (% mortality) as a percentage of untreated cells (Table 2).
Cell viability was tested using the MTT assay, 3-(4,5-dimethylthiazol-2-yl)-2,5-diphenyl-tetrazolium bromide (Bio Basic Canada Inc. Toronto, Canada).[26] Under class II biosafety regulations, the procedures were carried out in a sterile laminar air flow cabinet (Baker, SG403INT; Sanford, ME, USA). Cell lines were obtained from the American type culture collection (ATCC) as a gift from Dr Stig Linder, Karonisca Institute, Sweden. All incubations were performed at 37 °C in a 5% CO2 incubator with a 95% humidified environment (Sheldon, TC2323; Cornelius, OR, USA). 96-well micro titer polypropylene plates were seeded with cells at a density of 10^4 cells per well in complete DMEM media, and the cells were allowed to adhere for 24 hours. After the media was aspirated, the tested compounds were added to the cells in a single dose of 100 μg ml^−1 in DMSO. Each well received 40 μl of MTT salt ([…]) following a 48 hour incubation period. 200 μl of 10% sodium dodecyl sulfate (SDS) was added to each well after the reaction ended, and any formazan crystals that could have been produced were dissolved by two hours of incubator heating to 37 °C. The amount of formazan product was measured at 595 nm using a microplate reader (Bio-Rad Laboratories, model 3350, California, USA) with a reference wavelength of 690 nm, serving as a backdrop. Rather than the drugs under investigation, the medium was applied to the untreated cells (negative control). The examined compounds were dissolved in dimethylsulfoxide (DMSO), and the final concentration in the cells was less than 0.2%. For each compound and the control, the solvent concentration was the same.

For another data set, the system named is PC3 (prostate cell line). Put plainly: MTT cytotoxicity assay, PC3. It counts as cell-based. Conditions: Homo sapiens, 100 μg ml^−1, 48 hours, MTT, read-out: (%) Mortality PC3.
For data set [2], the system named is PACA2 (pancreatic cancer cell line). Put plainly: MTT cytotoxicity assay, PACA2. It is filed as cell-based. The note with it: Homo sapiens, PaCa-2; 100 μg ml^−1, 48 hours, MTT; read-out: (%) Mortality PACA2. A general note: Tetrazolium assays rely on reduction of a dye to a coloured formazan, in cell work by metabolically active cells.
Protocol: (§1) Using specific human cancer cell lines, the anti-proliferative effectiveness of compounds 7a–j was evaluated in an in vitro assay. The anti-cancer activity of these compounds (7a–j) on various cancer cell lines, including PC3 (Prostate cell line), A549 (Lung carcinoma), PACA2 (Pancreatic cancer cell line) and BJ1 (normal skin fibroblast), was investigated in this study using the 3-(4,5-dimethylthiazol-2-yl)-2,5-diphenyltetrazolium bromide (MTT) test. Doxorubicin (Dox) was the standard medication used as a positive control.
(§2) All incubations were performed at 37 °C in a 5% CO2 incubator with a 95% humidified environment (Sheldon, TC2323; Cornelius, OR, USA). 96-well micro titer polypropylene plates were seeded with cells at a density of 10^4 cells per well in complete DMEM media, and the cells were allowed to adhere for 24 hours. After the media was aspirated, the tested compounds were added to the cells in a single dose of 100 μg ml^−1 in DMSO. Each well received 40 μl of MTT salt (2.5 g ml^−1) following a 48 hour incubation period. 200 μl of 10% sodium dodecyl sulfate (SDS) was added to each well after the reaction ended, and any formazan crystals that could have been produced were dissolved by two hours of incubator heating to 37 °C. The amount of formazan product was measured at 595 nm using a microplate reader (Bio-Rad Laboratories, model 3350, California, USA) with a reference wavelength of 690 nm, serving as a backdrop. Rather than the drugs under investigation, the medium was applied to the untreated cells (negative control). The examined compounds were dissolved in dimethylsulfoxide (DMSO), and the final concentration in the cells was less than 0.2%. For each compound and the control, the solvent concentration was the same.
The subject of the next data set is A549 (lung carcinoma). Put plainly: MTT cytotoxicity assay, A549. It counts as cell-based. Conditions: Homo sapiens, A549, MTT; for cytotoxicity at 100 µg/mL: 100 μg ml^−1, 48 hours, read-out: (%) Mortality A549.

Protocol for A549 (lung carcinoma): as §1, §2
Protocol for PC3 (prostate cell line): as §1, §2

For `Cc1nn2c(-c3ccc(Cl)cc3)nn(-c3ccccc3)c2nc1=O` [Compound 7h, 3-(4-Chlorophenyl)-6-methyl-1-phenyl-[1,2,4]triazolo[4,3-b][1,2,4]triazin-7(1H)-one], the “(%) Mortality BJ1 (cytotoxicity percentage on normal cells)” value in data set [1] is 9.6 ± 0.93%. Also, the cytotoxicity at 100 µg/mL in the data set with PC3 (prostate cell line) was 24.2 ± 0.21%; in data set [2] it was 21.3 ± 0.98%; in the data set on A549 (lung carcinoma) it was 13.5 ± 0.33%.

Regarding `Cc1nn2c(-c3ccco3)nn(-c3ccc([N+](=O)[O-])cc3)c2nc1=O` [Compound 7i, 3-(Furan-2-yl)-6-methyl-1-(4-nitrophenyl)-[1,2,4]triazolo[4,3-b][1,2,4]triazin-7(1H)-one], in data set [1], the “(%) Mortality BJ1 (cytotoxicity percentage on normal cells)” value was found to be 2.9 ± 1.22%. Further, the cytotoxicity at 100 µg/mL amounted to 18.4 ± 1.14% with PC3 (prostate cell line), 9.6 ± 1.33% in data set [2] and 14.2 ± 0.24% in the data set on A549 (lung carcinoma).

For `CCCc1nn(-c2ccc([N+](=O)[O-])cc2)c2nc(=O)c(C)nn12` [Compound 7c, 6-Methyl-1-(4-nitrophenyl)-3-propyl-[1,2,4]triazolo[4,3-b][1,2,4]triazin-7(1H)-one], the “(%) Mortality BJ1 (cytotoxicity percentage on normal cells)” value in data set [1] is reported as 1.6 ± 0.38%. Also, the cytotoxicity at 100 µg/mL in the data set on PC3 (prostate cell line) was determined as 27.3 ± 1.2%; in data set [2], 10.5 ± 0.61%; in the data set with A549 (lung carcinoma), 22.9 ± 0.81%.

Consider `CCc1nn(-c2ccc([N+](=O)[O-])cc2)c2nc(=O)c(C)nn12` [Compound 7b, 3-Ethyl-6-methyl-1-(4-nitrophenyl)-[1,2,4]triazolo[4,3-b][1,2,4]triazin-7(1H)-one], for which the “(%) Mortality BJ1 (cytotoxicity percentage on normal cells)” value in data set [1] was determined as 4.2 ± 0.98%. Besides, the cytotoxicity at 100 µg/mL amounted to 24.5 ± 0.57% with PC3 (prostate cell line), 3.6 ± 0.21% in data set [2] and 35.2 ± 1.22% in the data set with A549 (lung carcinoma).

For the compound `Cc1nn2c(-c3cccs3)nn(-c3ccc([N+](=O)[O-])cc3)c2nc1=O` [Compound 7j, 6-Methyl-1-(4-nitrophenyl)-3-(thiophen-2-yl)-[1,2,4]triazolo[4,3-b][1,2,4]triazin-7(1H)-one], the “(%) Mortality BJ1 (cytotoxicity percentage on normal cells)” value in data set [1] is recorded as 3.8 ± 0.77%. For the same compound, the cytotoxicity at 100 µg/mL with PC3 (prostate cell line) was found to be 15.9 ± 0.51%; in data set [2], 7.2 ± 0.88%; with A549 (lung carcinoma) it was 32.8 ± 0.54%.

Take `Cc1nn2c(C(C)C)nn(-c3ccc([N+](=O)[O-])cc3)c2nc1=O` [Compound 7d, 3-Isopropyl-6-methyl-1-(4-nitrophenyl)-[1,2,4]triazolo[4,3-b][1,2,4]triazin-7(1H)-one]: the “(%) Mortality BJ1 (cytotoxicity percentage on normal cells)” value in data set [1] stood at 36.2 ± 1.11%. The cytotoxicity at 100 µg/mL is 17.9 ± 0.38% in the data set on PC3 (prostate cell line), 11.5 ± 0.25% in data set [2] and 33.3 ± 0.22% in the data set with A549 (lung carcinoma).

As for `Cc1ccc(-c2nn(-c3ccccc3)c3nc(=O)c(C)nn23)cc1` [Compound 7f, 6-Methyl-1-phenyl-3-(p-tolyl)-[1,2,4]triazolo[4,3-b][1,2,4]triazin-7(1H)-one], the “(%) Mortality BJ1 (cytotoxicity percentage on normal cells)” value in data set [1] was 3.2% and 3.2 ± 0.63%. Moreover, the figures for the cytotoxicity at 100 µg/mL (in the data set on PC3 (prostate cell line); in data set [2]; in the data set on A549 (lung carcinoma)) were 33.4 ± 1.18%, 5.6 ± 0.11% and 69.1 ± 0.77%, respectively.

In the case of `Cc1nn2c(CC(C)C)nn(-c3ccc([N+](=O)[O-])cc3)c2nc1=O` [Compound 7e, 3-Isobutyl-6-methyl-1-(4-nitrophenyl)-[1,2,4]triazolo[4,3-b][1,2,4]triazin-7(1H)-one], the “(%) Mortality BJ1 (cytotoxicity percentage on normal cells)” value in data set [1] is 6.4% and 6.4 ± 0.85%. Moreover, the cytotoxicity at 100 µg/mL turned out to be 35.1 ± 1.11% in the data set on PC3 (prostate cell line), 8.6 ± 0.33% in data set [2] and 86.3 ± 0.74% in the data set with A549 (lung carcinoma). Also, the IC50 (commonly the concentration that gives 50% inhibition) in the data set with A549 (lung carcinoma) (48 hour incubation) is 42.5 µM.
